Data published in patent US20230167505A1, “CIRCULATING TUMOR DNA AS A BIOMARKER FOR LEUKEMIA TREATMENT” (Cardiff Oncology, Inc., priority 2020, published 2023).
Values joined by “and” are separate entries in the source; they are usually repeats but may differ in a detail not shown here. Equal entries are not always repeated.

Test system: patients with relapsed or refractory (R/R) AML
[1] = all patients (N = 40), onvansertib + LDAC or decitabine, patients n (%)
[2] = phase Ib, onvansertib + LDAC or decitabine

SMILES: CN1CCN(c2ccc(OC(F)(F)F)c(Nc3ncc4c(n3)-c3c(c(C(N)=O)nn3CCO)CC4)c2)CC1 [onvansertib, 1-(2-hydroxyethyl)-8-{[5-(4-methylpiperazin-1-yl)-2-(trifluoromethoxy)phenyl]amino}-4,5-dihydro-1H-pyrazolo [4,3-h] quinazoline-3-carboxamide]
- G3 stomatitis possibly related to onvansertib (3 patients: one at 60 mg/m^2, two at 90 mg/m^2): 8%
- patients discontinued from therapy because of treatment-related AEs (G2 fatigue, G3 mucositis (DLT), G4 rash (DLT)): Three
- Treatment-emergent AE: Anemia, All grades (%) [1]: 15 (37.5) %
- Treatment-emergent AE: Anemia, Grade 1-2 (%) [1]: 1 (2.5) %
- Treatment-emergent AE: Blood bilirubin increased, All grades (%) [1]: 4 (10) %
- Treatment-emergent AE: Blood bilirubin increased, Grace 3-4 (%) [1]: 1 (2.5) %
- Treatment-emergent AE: Blood bilirubin increased, Grade 1-2 (%) [1]: 3 (7.5) %
- Treatment-emergent AE: Constipation, All grades (%) [1]: 6 (15) %
- Treatment-emergent AE: Constipation, Grade 1-2 (%) [1]: 6 (15) %
- Treatment-emergent AE: Cough, All grades (%) [1]: 6 (15) %
- Treatment-emergent AE: Cough, Grade 1-2 (%) [1]: 6 (15) %
- Treatment-emergent AE: Decreased appetite, All grades (%) [1]: 6 (15) %
- Treatment-emergent AE: Decreased appetite, Grade 1-2 (%) [1]: 6 (15) %
- Treatment-emergent AE: Diarrhea, All grades (%) [1]: 8 (20) %
- Treatment-emergent AE: Diarrhea, Grade 1-2 (%) [1]: 8 (20) %
- Treatment-emergent AE: Dizziness, All grades (%) [1]: 5 (12.5) %
- Treatment-emergent AE: Dizziness, Grade 1-2 (%) [1]: 5 (12.5) %
- Treatment-emergent AE: Dyspnea, All grades (%) [1]: 10 (25) %
- Treatment-emergent AE: Dyspnea, Grace 3-4 (%) [1]: 2 (5) %
- Treatment-emergent AE: Dyspnea, Grade 1-2 (%) [1]: 8 (20) %
- Treatment-emergent AE: Edema, All grades (%) [1]: 8 (20) %
- Treatment-emergent AE: Edema, Grace 3-4 (%) [1]: 2 (5) %
- Treatment-emergent AE: Edema, Grade 1-2 (%) [1]: 6 (15) %
- Treatment-emergent AE: Epistaxis, All grades (%) [1]: 6 (15) %
- Treatment-emergent AE: Epistaxis, Grade 1-2 (%) [1]: 6 (15) %
- Treatment-emergent AE: Fatigue, All grades (%) [1]: 14 (35) %
- Treatment-emergent AE: Fatigue, Grade 1-2 (%) [1]: 14 (35) %
- Treatment-emergent AE: Febrile neutropenia, All grades (%) [1]: 12 (30) %
- Treatment-emergent AE: Headache, All grades (%) [1]: 4 (10) %
- Treatment-emergent AE: Headache, Grade 1-2 (%) [1]: 4 (10) %
- Treatment-emergent AE: Leukopenia, All grades (%) [1]: 5 (12.5) %
- Treatment-emergent AE: Leukopenia, Grace 3-4 (%) [1]: 12.5% and 5 (12.5) %
- Treatment-emergent AE: Lung infection, All grades (%) [1]: 4 (10) %
- Treatment-emergent AE: Lung infection, Grace 3-4 (%) [1]: 4 (10) %
- Treatment-emergent AE: Nausea/vomiting, All grades (%) [1]: 12 (30) %
- Treatment-emergent AE: Nausea/vomiting, Grade 1-2 (%) [1]: 12 (30) %
- Treatment-emergent AE: Neutropenia, All grades (%) [1]: 10 (25) %
- Treatment-emergent AE: Oropharyngeal pain, All grades (%) [1]: 4 (10) %
- Treatment-emergent AE: Oropharyngeal pain, Grade 1-2 (%) [1]: 4 (10) %
- Treatment-emergent AE: Pyrexia, All grades (%) [1]: 5 (12.5) %
- Treatment-emergent AE: Pyrexia, Grade 1-2 (%) [1]: 5 (12.5) %
- Treatment-emergent AE: Rash/pruritus, All grades (%) [1]: 11 (27.5) %
- Treatment-emergent AE: Rash/pruritus, Grace 3-4 (%) [1]: 1 (2.5) %
- Treatment-emergent AE: Rash/pruritus, Grade 1-2 (%) [1]: 10 (25) %
- Treatment-emergent AE: Stomatitis, All grades (%) [1]: 9 (22.5) %
- Treatment-emergent AE: Stomatitis, Grace 3-4 (%) [1]: 12.5% and 5 (12.5) %
- Treatment-emergent AE: Stomatitis, Grade 1-2 (%) [1]: 4 (10) %
- Treatment-emergent AE: Thrombocytopenia, All grades (%) [1]: 12 (30) %
- Treatment-emergent AE: Thrombocytopenia, Grade 1-2 (%) [1]: 2 (5) %
- G3 and G4 AE possibly related to onvansertib: anemia (all patients, N = 40): 12.5%
- G3 and G4 AE possibly related to onvansertib: leukopenia (all patients, N = 40): 5%
- G3 and G4 AE possibly related to onvansertib: neutropenia (all patients, N = 40): 15%
- G3 and G4 AE possibly related to onvansertib: thrombocytopenia (all patients, N = 40): 12.5%
- patients experiencing a DLT during the first cycle (arm B (decitabine), dose level 6 (90 mg/m^2), grade 3 mucositis and grade 4 rash): 2 of 6 and 2 of the 6
- MTD of onvansertib in combination with decitabine (arm B, oral days 1-5 + decitabine 20 mg/m^2 IV days 1-5, 28-day cycle): 60 mg/m^2
- DLTs (first five dose levels (12-60 mg/m^2), both arms (LDAC, decitabine)): no DLTs reported
- tolerability (first five dose levels (12-60 mg/m^2), with LDAC or decitabine): well tolerated
- skin toxicities (higher incidence and higher grade at 90 mg/m^2): observed at the last two dose levels of onvansertib (60 and 90 mg/m^2)
- SAEs considered as possibly related to onvansertib (of 71 SAEs): 13%
- patients with dose reduction of onvansertib due to hematologic toxicities (one from 18 mg/m^2, one from 27 mg/m^2 dose level): Two
- patients with SAEs (phase Ib, both arms): 33 patients
- total serious AEs (SAE) reported (phase Ib, both arms): 71
- Serious adverse event Aphasia: Number of events [2]: 1
- Serious adverse event Aphasia: Number of patients [2]: 1
- Serious adverse event Appendicitis: Number of events [2]: 1
- Serious adverse event Appendicitis: Number of patients [2]: 1
- Serious adverse event Arthralgia: Number of events [2]: 1
- Serious adverse event Arthralgia: Number of patients [2]: 1
- Serious adverse event Asthenia: Number of events [2]: 1
- Serious adverse event Asthenia: Number of patients [2]: 1
- Serious adverse event Atrial fibrillation: Number of events [2]: 1
- Serious adverse event Atrial fibrillation: Number of patients [2]: 1
- Serious adverse event Back pain: Number of events [2]: 1
- Serious adverse event Back pain: Number of patients [2]: 1
- Serious adverse event Disease progression: Number of events [2]: 1
- Serious adverse event Disease progression: Number of patients [2]: 1
- Serious adverse event Dyspnea: Number of events [2]: 1
- Serious adverse event Dyspnea: Number of patients [2]: 1
- Serious adverse event Edema peripheral: Number of events [2]: 1
- Serious adverse event Edema peripheral: Number of patients [2]: 1
- Serious adverse event Face edema: Number of events [2]: 1
- Serious adverse event Face edema: Number of patients [2]: 1
- Serious adverse event Febrile neutropenia: Number of events [2]: 25
- Serious adverse event Febrile neutropenia: Number of patients [2]: 17
- Serious adverse event Hematuria: Number of events [2]: 1
- Serious adverse event Hematuria: Number of patients [2]: 1
- Serious adverse event Hemorrhage intracranial: Number of events [2]: 1
- Serious adverse event Hemorrhage intracranial: Number of patients [2]: 1
- Serious adverse event Hyponatremia: Number of events [2]: 1
- Serious adverse event Hyponatremia: Number of patients [2]: 1
- Serious adverse event Infusion related reaction: Number of events [2]: 1
- Serious adverse event Infusion related reaction: Number of patients [2]: 1
- Serious adverse event Leukemic infiltration: Number of events [2]: 1
- Serious adverse event Leukemic infiltration: Number of patients [2]: 1
- Serious adverse event Lower gastrointestinal hemorrhage: Number of events [2]: 1
- Serious adverse event Lower gastrointestinal hemorrhage: Number of patients [2]: 1
- Serious adverse event Lung consolidation: Number of events [2]: 1
- Serious adverse event Lung consolidation: Number of patients [2]: 1
- Serious adverse event Lung infection: Number of events [2]: 5
- Serious adverse event Lung infection: Number of patients [2]: 5
- Serious adverse event Neck pain: Number of events [2]: 1
- Serious adverse event Neck pain: Number of patients [2]: 1
- Serious adverse event Neutrophil count decreased: Number of events [2]: 1
- Serious adverse event Neutrophil count decreased: Number of patients [2]: 1
- Serious adverse event Pain in jaw: Number of events [2]: 1
- Serious adverse event Pain in jaw: Number of patients [2]: 1
- Serious adverse event Palmar-plantar erythrodysaesthesia syndrome: Number of events [2]: 1
- Serious adverse event Palmar-plantar erythrodysaesthesia syndrome: Number of patients [2]: 1
- Serious adverse event Pharyngeal edema: Number of events [2]: 1
- Serious adverse event Pharyngeal edema: Number of patients [2]: 1
- Serious adverse event Physical deconditioning: Number of events [2]: 1
- Serious adverse event Physical deconditioning: Number of patients [2]: 1
- Serious adverse event Pleural effusion: Number of events [2]: 1
- Serious adverse event Pleural effusion: Number of patients [2]: 1
- Serious adverse event Pneumonia fungal: Number of events [2]: 1
- Serious adverse event Pneumonia fungal: Number of patients [2]: 1
- Serious adverse event Pneumonia: Number of events [2]: 3
- Serious adverse event Pneumonia: Number of patients [2]: 3
- Serious adverse event Pulmonary mass: Number of events [2]: 1
- Serious adverse event Pulmonary mass: Number of patients [2]: 1
- Serious adverse event Pyrexia: Number of events [2]: 2
- Serious adverse event Pyrexia: Number of patients [2]: 2
- Serious adverse event Rash maculo-papular: Number of events [2]: 1
- Serious adverse event Rash maculo-papular: Number of patients [2]: 1
- Serious adverse event Septic shock: Number of events [2]: 1
- Serious adverse event Septic shock: Number of patients [2]: 1
- Serious adverse event Seroma: Number of events [2]: 1
- Serious adverse event Seroma: Number of patients [2]: 1
- Serious adverse event Skin lesion: Number of events [2]: 1
- Serious adverse event Skin lesion: Number of patients [2]: 1
- Serious adverse event Soft tissue infection: Number of events [2]: 1
- Serious adverse event Soft tissue infection: Number of patients [2]: 1
- Serious adverse event Staphylococcal bacteremia: Number of events [2]: 1
- Serious adverse event Staphylococcal bacteremia: Number of patients [2]: 1
- Serious adverse event Stomatitis: Number of events [2]: 1
- Serious adverse event Stomatitis: Number of patients [2]: 1
- Serious adverse event Tumor lysis syndrome: Number of events [2]: 1
- Serious adverse event Tumor lysis syndrome: Number of patients [2]: 1
- Serious adverse event Urine output decreased: Number of events [2]: 1
- Serious adverse event Urine output decreased: Number of patients [2]: 1
- deaths while on treatment (phase Ib, all related to AML or its complications): Three
